Laboratory results: article PMC10207715, “Dual inhibition of IDO1/TDO2 enhances anti-tumor immunity in platinum-resistant non-small cell lung cancer” (Cancer & Metabolism, 2023)

Columns and labels:
[1] = target: T1, indoleamine 2,3-dioxygenase-1 (IDO1) (Homo sapiens, UniProt P14902); assay: cellular kynurenine colorimetric assay in LLC-hIDO1 cells, […] h; format: cell-based
T1 construct: human IDO1 in expression vector F279-V5/hIDO1, stably transfected in LLC cells

[2] = target: T2, tryptophan 2,3-dioxygenase-2 (TDO2) (Homo sapiens, UniProt P48775); assay: cellular kynurenine colorimetric assay in GL261-hTDO2 cells, […] h; format: cell-based
T2 construct: full-length human TDO2, overexpressed in GL261 cells
T2 sequence (P48775 whole entry): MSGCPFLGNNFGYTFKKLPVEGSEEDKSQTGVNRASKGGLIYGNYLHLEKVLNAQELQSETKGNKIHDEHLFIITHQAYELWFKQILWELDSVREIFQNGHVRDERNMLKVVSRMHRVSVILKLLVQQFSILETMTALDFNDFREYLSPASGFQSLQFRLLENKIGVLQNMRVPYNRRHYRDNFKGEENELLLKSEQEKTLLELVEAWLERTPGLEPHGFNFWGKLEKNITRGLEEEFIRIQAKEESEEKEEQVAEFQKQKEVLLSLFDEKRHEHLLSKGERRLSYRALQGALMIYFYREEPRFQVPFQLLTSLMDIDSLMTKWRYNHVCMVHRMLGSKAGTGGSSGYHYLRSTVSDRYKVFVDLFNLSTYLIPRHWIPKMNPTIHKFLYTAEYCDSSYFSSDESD

T1 sequence (P14902 whole entry): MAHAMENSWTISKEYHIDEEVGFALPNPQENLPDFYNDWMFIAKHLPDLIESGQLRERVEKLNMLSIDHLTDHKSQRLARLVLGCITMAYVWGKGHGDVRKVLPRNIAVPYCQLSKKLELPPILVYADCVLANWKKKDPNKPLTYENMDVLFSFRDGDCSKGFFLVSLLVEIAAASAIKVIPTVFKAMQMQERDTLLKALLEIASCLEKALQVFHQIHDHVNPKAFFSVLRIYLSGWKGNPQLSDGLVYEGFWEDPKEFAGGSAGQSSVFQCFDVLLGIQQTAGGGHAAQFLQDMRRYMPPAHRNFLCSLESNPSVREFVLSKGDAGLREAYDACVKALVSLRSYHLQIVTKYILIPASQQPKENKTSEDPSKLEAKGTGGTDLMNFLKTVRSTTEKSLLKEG

AT-0174 gave an IC50 [1] of 170 nM and an IC50 [2] of 250 nM.
